According to patent US20230203029A1 (priority 2020, published 2023):
Like-named read-outs stand apart in the source and are kept apart here.

Legend:
Type in all cases: cell-based
[1] = target: T1, Ba/F3 Pro B-cell line expressing TEL-human MERTK fusion domain (Homo sapiens, UniProt Q12866)
T1 sequence (Q12866 587-858 limits assumed): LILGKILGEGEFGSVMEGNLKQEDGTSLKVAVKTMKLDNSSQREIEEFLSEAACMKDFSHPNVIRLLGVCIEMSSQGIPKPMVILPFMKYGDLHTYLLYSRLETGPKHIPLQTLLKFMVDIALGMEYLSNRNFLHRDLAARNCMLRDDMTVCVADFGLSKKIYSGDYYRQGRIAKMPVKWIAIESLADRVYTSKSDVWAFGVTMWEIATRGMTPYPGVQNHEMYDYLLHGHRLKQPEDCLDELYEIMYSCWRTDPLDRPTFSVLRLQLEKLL
How it was run: (§1)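 Ba/F3 cells dependent on BCR-AXL or TEL-MERTK fusion kinase (IL3-free; IL3 only for control lines) treated with compound 48 h at 37 °C, 0.25% DMSO. Viability by CellTiter-Glo luminescence; IC50 for half-maximal inhibition of survival from 4-parameter variable-slope fit.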

[2] = target: T2, Ba/F3 Pro B-cell line expressing TEL-human Tyro3 fusion domain (Homo sapiens, UniProt Q06418); conditions: cell survival, 48 h, CellTiter-Glo
T2 sequence (Q06418 518-790 limits assumed): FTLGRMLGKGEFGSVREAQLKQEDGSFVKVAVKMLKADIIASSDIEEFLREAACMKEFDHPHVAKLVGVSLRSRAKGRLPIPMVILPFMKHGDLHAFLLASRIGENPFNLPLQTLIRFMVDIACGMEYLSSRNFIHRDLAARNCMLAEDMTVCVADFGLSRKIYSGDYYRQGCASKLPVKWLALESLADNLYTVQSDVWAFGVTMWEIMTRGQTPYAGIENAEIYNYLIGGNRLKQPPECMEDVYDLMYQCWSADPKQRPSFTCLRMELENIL

[3] = target: T3, Ba/F3 Pro B-cell line expressing BCR-human AXL kinase domain fusion protein (Homo sapiens, UniProt P30530); test: Assay 5 Ba/F3 cell survival assay, BCR-Axl; conditions: read-out: BCR-Axl Ba/F3 IC50, 48 h, CellTiter-Glo
T3 construct: P11274 (Breakpoint cluster region protein)
T3 sequence (P30530 536-807 limits assumed): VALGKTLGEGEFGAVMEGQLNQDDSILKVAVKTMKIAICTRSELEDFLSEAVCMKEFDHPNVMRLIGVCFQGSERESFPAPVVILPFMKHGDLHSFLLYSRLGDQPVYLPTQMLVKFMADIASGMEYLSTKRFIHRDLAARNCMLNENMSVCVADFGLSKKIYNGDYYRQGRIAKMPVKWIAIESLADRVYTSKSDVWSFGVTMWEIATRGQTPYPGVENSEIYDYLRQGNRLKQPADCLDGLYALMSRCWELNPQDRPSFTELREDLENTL
How it was run: as §1

[4] = cell survival, 48 h, CellTiter-Glo; read-out: TEL-MERTK Ba/F3 IC50

SMILES	IC50 [1, 4] [nM]	IC50 [2] [nM]	IC50 [3] [nM]	IC50 ([1]; read-out: TEL-MERTK Ba/F3 IC50; cell survival, 48 h, CellTiter-Glo) [nM]
CN1CCC(NC(=O)c2cc3c(Oc4ccc(NC(=O)c5cn(C6CC6)c(=O)n(-c6ccc(F)cc6)c5=O)cc4)ccnc3cn2)CC1 [Example 15, 4-[4-[[1-Cyclopropyl-3-(4-fluorophenyl)-2,4-dioxo-pyrimidine-5-carbonyl]amino]phenoxy]-N-(1-methyl-4-piperidyl)-1,7-naphthyridine-6-carboxamide]	159	673	14	–
C[C@H](CO)n1cc(C(=O)Nc2ccc(Oc3ccnc4cnc(C(=O)NC5CCN(C)CC5)cc34)cc2)c(=O)n(-c2ccc(F)cc2)c1=O [Example 14, 4-[4-[[3-(4-Fluorophenyl)-2,4-dioxo-1-[(1R)-2-hydroxy-1-methyl-ethyl]pyrimidine-5-carbonyl]amino]phenoxy]-N-(1-methyl-4-piperidyl)-1,7-naphthyridine-6-carboxamide]	80	592	7	–
CC(C)n1cc(C(=O)Nc2ccc(Oc3ccnc4cnc(N5CCNCC5)cc34)cc2)c(=O)n(-c2ccc(F)cn2)c1=O [Example 12.4, 3-(5-fluoro-2-pyridyl)-1-isopropyl-2,4-dioxo-N-[4-[(6-piperazin-1-yl-1,7-naphthyridin-4-yl)oxy]phenyl]pyrimidine-5-carboxamide]	100	313	12	–
CN1CCC(NC(=O)c2cc3c(Oc4ccc(NC(=O)c5cccn(-c6ccccc6)c5=O)cc4F)ccnc3cn2)CC1 [Example 33, 4-[2-fluoro-4-[(2-oxo-1-phenyl-pyridine-3-carbonyl)amino]phenoxy]-N-(1-methyl-4-piperidyl)-1,7-naphthyridine-6-carboxamide]	58	155	30	–
CN1CCC(NC(=O)c2cc3c(Nc4ccc(NC(=O)c5cccn(-c6ccccc6)c5=O)cc4)ccnc3cn2)CC1 [Example 3, N-(1-methyl-4-piperidyl)-4-[4-[(2-oxo-1-phenyl-pyridine-3-carbonyl)amino]anilino]-1,7-naphthyridine-6-carboxamide]	314	956	45	–
CC(C)n1cc(C(=O)Nc2ccc(Oc3ccnc4cnc(N5CCNCC5)cc34)cc2)c(=O)c(-c2ccc(F)cc2)c1 [Example 13, 5-(4-Fluorophenyl)-1-isopropyl-4-oxo-N-[4-[(6-piperazin-1-yl-1,7-naphthyridin-4-yl)oxy]phenyl]pyridine-3-carboxamide]	31	212	13	–
CC(C)n1cc(C(=O)Nc2ccc(Oc3ccnc4cnc(N5CCNCC5)cc34)cc2)c(=O)n(-c2ccccn2)c1=O [Example 12.3, 1-isopropyl-2,4-dioxo-N-[4-[(6-piperazin-1-yl-1,7-naphthyridin-4-yl)oxy]phenyl]-3-(2-pyridyl)pyrimidine-5-carboxamide]	431	1320	64	–
CC(C)n1cc(C(=O)Nc2ccc(Oc3ccnc4cnc(C(=O)NC5CCN(C)CC5)cc34)cc2)c(=O)c(-c2ccc(F)cc2)c1 [Example 37.1, 4-[4-[[5-(4-fluorophenyl)-1-isopropyl-4-oxo-pyridine-3-carbonyl]amino]phenoxy]-N-(1-methyl-4-piperidyl)-1,7-naphthyridine-6-carboxamide]	8	43	2	–
O=C(Nc1ccc(Oc2ccnc3cnc(N4CCNCC4)cc23)cc1)c1cn(C2CC2)c(=O)n(-c2ccc(F)cc2)c1=O [Example 36, 1-cyclopropyl-3-(4-fluorophenyl)-2,4-dioxo-N-[4-[(6-piperazin-1-yl-1,7-naphthyridin-4-yl)oxy]phenyl]pyrimidine-5-carboxamide]	160	873	34	–
O=C(Nc1ccc(Oc2ccnc3cnc(N4CCN(C5COC5)CC4)cc23)cn1)c1ccnn(-c2ccc(F)cc2)c1=O [Example 20, 2-(4-fluorophenyl)-N-[5-[[6-[4-(oxetan-3-yl)piperazin-1-yl]-1,7-naphthyridin-4-yl]oxy]-2-pyridyl]-3-oxo-pyridazine-4-carboxamide]	20	272	16	–
CC(C)n1cc(C(=O)Nc2ccc(Oc3ccnc4cnc(C(=O)NC5CCN(C)CC5)cc34)cn2)c(=O)n(-c2ccc(F)cc2)c1=O [Example 27.5, 4-[[6-[[3-(4-fluorophenyl)-1-isopropyl-2,4-dioxo-pyrimidine-5-carbonyl]amino]-3-pyridyl]oxy]-N-(1-methyl-4-piperidyl)-1,7-naphthyridine-6-carboxamide]	9	107	2	–
O=C(Nc1ccc(Oc2ccnc3cnc(N4CCNCC4)cc23)cc1)c1cccn(-c2ccc(F)cc2)c1=O [Example 12.2, 1-(4-fluorophenyl)-2-oxo-N-[4-[(6-piperazin-1-yl-1,7-naphthyridin-4-yl)oxy]phenyl]pyridine-3-carboxamide]	56	238	48	–
CN1CCC(NC(=O)c2cc3c(Oc4ccc(NC(=O)c5cn(C)cc(-c6ccc(F)cc6)c5=O)cc4)ccnc3cn2)CC1 [Example 37, 4-[4-[[5-(4-fluorophenyl)-1-methyl-4-oxo-pyridine-3-carbonyl]amino]phenoxy]-N-(1-methyl-4-piperidyl)-1,7-naphthyridine-6-carboxamide]	50	251	17	–
Cn1cc(C(=O)Nc2ccc(Oc3ccnc4cnc(N5CCNCC5)cc34)cc2)c(=O)c(-c2ccc(F)cc2)c1 [Example 13.1, 5-(4-fluorophenyl)-1-methyl-4-oxo-N-[4-[(6-piperazin-1-yl-1,7-naphthyridin-4-yl)oxy]phenyl]pyridine-3-carboxamide]	50	179	22	–
Cc1cc(NC(=O)c2cccn(-c3ccccc3)c2=O)ccc1Oc1ccnc2cnc(N3CCNCC3)cc12 [Example 30, N-[3-methyl-4-[(6-piperazin-1-yl-1,7-naphthyridin-4-yl)oxy]phenyl]-2-oxo-1-phenyl-pyridine-3-carboxamide]	–	1330	470	466
